Results reported in US10603345B2, “Pharmaceutical composition for treating respiratory disease” (Kunming Institute of Botany, The Chinese Academy of Sciences, priority 2015, dated 2020).

Columns and labels:
Type in all cases: in vivo
[1] = test system: KL-6 in serum of pulmonary fibrosis model mouse; assay: Effect on KL-6 in serum of pulmonary fibrosis model mouse; conditions: ELISA, bleomycin pulmonary fibrosis mouse, ig 28 d, dose/kg: prednisone acetate 5 mg, Test group 1 50, 2 25, 3 12.5, picrinine 5.0, vallesamine 3.0, scholaricine 3.5, 19-epi-scholaricine 1.0 mg, x ± SD
Experimental: (§1) Animal source: 30˜35 g male ICR mouse, from laboratory animal department of Kunming Medical University, License No. SCXK (Dian) 2011-0004.
(§2) Method and route: bleomycin was used to induce mouse pulmonary fibrosis, and after intragastrical administration for 28 d at a dose of 20 mL/kg, the animal was sacrificed at the 29th day.
(§3) Group and dose: Sham group, Model group, Positive control group, prednisone acetate (5 mg/kg) group, Test group 1: picrinine, vallesamine, scholaricine and 19-epischolaricine prepared in Example 1.7 were mixed at different ratios by weight (50 mg/kg), Test group 2: the alkaloid composition (25 mg/kg) prepared in Example 1.5, Test group 3: the alkaloid composition (12.5 mg/kg) prepared in Example 1.6, Picrinine group (5.0 mg/kg), Vallesamine group (3.0 mg/kg), Scholaricine group (3.5 mg/kg), and 19-epischolaricine group (1.0 mg/kg).
(§4) Positive control drug: prednisone acetate tablet, Approval number: H33021207, 5 mg/tablet, produced by Zhejiang Xianju Pharmaceutical Co., Ltd., Batch No. 140146.
(§5) Sample preparation: all the samples were prepared by using 0.5% carboxymethylcellulose sodium (0.5% CMC-Na).
Group and dose: in Test group 1, the ratio of picrinine, vallesamine, scholaricine and 19-epischolaricine by weight was 45:38:30:8, and the other groups and doses thereof were as described in Example 12.
Test index: KL-6 in serum was used as index, and was determined by enzyme linked immunosorbent assay.

[2] = test system: Col-1 in homogenate of pulmonary fibrosis model mouse; assay: Effect on Col-1 in homogenate of pulmonary fibrosis model mouse; conditions: ELISA, bleomycin pulmonary fibrosis mouse, ig 28 d, dose/kg: prednisone acetate 5 mg, Test group 1 50, 2 25, 3 12.5, picrinine 5.0, vallesamine 3.0, scholaricine 3.5, 19-epi-scholaricine 1.0 mg, x ± SD
Experimental: as §1, §2, §3, §4, §5
Group and dose: in Test group 1, the ratio of picrinine, vallesamine, scholaricine and 19-epischolaricine by weight was 20:17:17:4, and the other groups and doses thereof were as described in Example 12.
Test index: Col-1 in homogenate was used as index, and was determined by enzyme linked immunosorbent assay.

[3] = test system: MDA in serum and homogenate of pulmonary fibrosis model mouse; assay: Effect on MDA in serum and homogenate of pulmonary fibrosis model mouse; conditions: bleomycin pulmonary fibrosis mouse, ig 28 d, dose/kg: prednisone acetate 5 mg, Test group 1 50, 2 25, 3 12.5, picrinine 5.0, vallesamine 3.0, scholaricine 3.5, 19-epi-scholaricine 1.0 mg, x ± SD
Experimental: as §1, §2, §3, §4, §5
Group and dose: in Test group 1, the ratio of picrinine, vallesamine, scholaricine and 19-epischolaricine by weight was 8:5:5:1, and the other groups and doses thereof were as described in Example 12.
Test index: MDA in serum and homogenate was used as index, and was determined by thiobabituric acid method.

[4] = test system: CRP in serum in COPD model mouse; assay: Effect on CRP in serum in COPD model mouse; conditions: ELISA, ig 7 d, dose/kg: dexamethasone 1 mg, Test group 1 50, 2 25, 3 10, picrinine 10, vallesamine 6, scholaricine 7, 19-epi-scholaricine 2 mg, x ± SD
Experimental: (§6) Animal source: 25˜30 g male ICR mouse, from laboratory animal department of Kunming Medical University, License No. SCXK (Dian) 2011-0004.
Method and route: lipopolysaccharide (LPS) plus smoke exposure was used for 30 days to induce mouse chronic obstructive pulmonary disease model; and after intragastrical administration for 7 d at a dose of 20 mL/kg, the animal was sacrificed at the eighth day.
Picrinine group (10 mg/kg), Vallesamine group (6.0 mg/kg), Scholaricine group (7.0 mg/kg), 19-epischolaricine group (2.0 mg/kg).
as §5
Group and dose: in Test group 1, the ratio of picrinine, vallesamine, scholaricine and 19-epischolaricine by weight was 25:19:20:4, and the other groups and doses thereof were as described in Example 10.
Test index: CRP in serum was used as index, and was determined by enzyme linked immunosorbent assay.

[5] = test system: WBC count and eosinophil percentage in BALF of asthma model mouse; assay: Effect on WBC count and eosinophil percentage in BALF of asthma model mouse; conditions: OVA-induced asthma mouse, ig 7 d, dose/kg: dexamethasone 2 mg, Test group 1 50, 2 25, picrinine 5.0, vallesamine 3.0, scholaricine 3.0, 19-epi-scholaricine 3.5 mg, x ± SD
Experimental: as §6
(§7) Method and route: ovalbumin (OVA) was used to induce mouse asthma model, and after intragastrical administration for 7 d at a dose of 20 mL/kg, the animal was sacrificed at the eighth day.
(§8) Test group 1: picrinine, vallesamine, scholaricine and 19-epischolaricine prepared in Example 1.7 were homogeneously mixed at different ratios by weight (50 mg/kg), Test group 2: the alkaloid composition prepared in Example 1.4 (25 mg/kg). […]
as §5
Group and dose: in Test group 1, the ratio of picrinine, vallesamine, scholaricine and 19-epischolaricine by weight was 41:45:28:7, and the other groups and doses thereof were as described in Example 11.
Test index: number of white blood cells (WBCs) and number of eosinophil in bronchoalveolar lavage fluid (BALF) were used as index, and were determined by full-automatic hemocytometer.

[6] = test system: IL-10 in BALF of asthma model mouse; assay: Effect on IL-10 in BALF of asthma model mouse; conditions: ELISA, ig 7 d, dose/kg: dexamethasone 2.0 mg, Test group 1 50, 2 25, picrinine 5.0, vallesamine 3.0, scholaricine 3.0, 19-epi-scholaricine 3.5 mg, x ± SD
Experimental: as §6, §7, §8, §5
Group and dose: in Test group 1, the ratio of picrinine, vallesamine, scholaricine and 19-epischolaricine by weight was 18:13:14:3, and the other groups and doses thereof were as described in Example 11.
Test index: IL-10 in BALF was used as index, and was determined by enzyme linked immunosorbent assay.

[7] = test system: SOD in serum and homogenate of pulmonary fibrosis model mouse; assay: Effect on SOD in serum and homogenate of pulmonary fibrosis model mouse; conditions: bleomycin pulmonary fibrosis mouse, ig 28 d, dose/kg: prednisone acetate 5 mg, Test group 1 50, 2 25, 3 12.5, picrinine 5.0, vallesamine 3.0, scholaricine 3.5, 19-epi-scholaricine 1.0 mg, x ± SD
Experimental: as §1, §2, §3, §4, §5
Group and dose: in Test group 1, the ratio of picrinine, vallesamine, scholaricine and 19-epischolaricine by weight was 10:7:7:2, and the other groups and doses thereof were as described in Example 12.
Test index: SOD in serum and homogenate was used as index, and was determined by xanthine oxidase method.

Row | Structure (SMILES) | KL-6 [1] | Col-1 [2] | MDA Homogenate ([3]; homogenate) | MDA Serum ([3]; serum) | CRP [4] | Eosinophil percentage [5] | Number of WBCs [5] | IL-10 [6] | SOD homogenate ([7]; homogenate) | SOD Serum ([7]; serum)
1 | COC(=O)C1=C2Nc3c(O)cccc3[C@@]23CCN2C[C@@H]([C@H](C)O)[C@@H]1C[C@H]23 [19-epi-scholaricine, 19-epischolaricine] | 4.10 ± 0.97 U/mg prot | 6.5 ± 2.2 μg/g prot | 22.0 ± 7.4 nmol/mg prot | 0.66 ± 0.18 nmol/mg prot |  |  |  |  |  | 
2 | C/C=C1/CN2[C@@H]3C[C@@]45c6ccccc6N[C@]4(O3)[C@@H]2C[C@@H]1[C@H]5C(=O)OC [picrinine] | 3.91 ± 0.60 U/mg prot |  |  |  | 23.5 ± 2.2 pg/mL | 6.18 ± 3.61% | 0.91 ± 0.50 ×10^9/L | 13.00 ± 3.15 pg/mL | 53.2 ± 8.9 U/mg prot | 17.2 ± 5.1 U/mg prot
3 | C/C=C1/CN2CC[C@@H]1[C@@](CO)(C(=O)OC)c1[nH]c3ccccc3c1C2 [vallesamine] |  | 6.3 ± 2.7 μg/g prot |  |  | 23.8 ± 1.9 pg/mL | 6.48 ± 2.84% | 0.73 ± 0.35 ×10^9/L | 14.83 ± 3.49 pg/mL |  | 
